Reference: patent US20230338473A1, “AN[…] TARGETING IL-2, IL-9, AND IL-15 SIGNALING FOR THE TREATMENT OF CYTOK[…] AND CYTOKINE STORM ASSOCIATED DISORDERS” (priority 2020, published 2023)

Key:
IL-4 = assay: PT-18β proliferation assay (WST-1), IL-4; type: cell-based; conditions: PT-18β cells, 1 nM cytokine, BNZ-γ as 1:20 or 1:60 dilution of HEK293T supernatant, 2 days
Source text: (§1) For each of the six γc-cytokines, indicator cell lines: NK92, a human NK cell line NK92 available by American Type Culture Collection (ATCC) (catalog # CRL-2407), CTLL-2, a murine CD8 T cells line available from ATCC, and PT-18, a murine mast cell line and its subclone PT-18β, is transfected with human IL-2Rβ gene to make the cells responsive to IL-2 and IL-15 (Tagaya et al., 1996, EMBO J. 15:4928-39), and is used to quantitatively determine the γc-cytokine’s growth-promoting activity (See Current protocols in Immunology from Wiley and Sons for a methodological reference).
(§2) Once the appropriate doses of the cytokine that yield the 50% and 95% maximum response from the indicator cell line is determined, various concentrations (ranging from 1 pM to 10 µM) of the purified or synthesized custom derivative peptide is added to each well containing the cytokine and indicator cells. The reduction in light absorbance at 450 nm is used as an indicator of inhibition of cytokine-stimulated cellular proliferation. Typically, the cells are stimulated by the cytokines such that the absorbance of the well containing indicator cell line and the cytokine is between 2.0 and 3.0, which is reduced to a range of 0.1 to 0.5 by the addition of inhibitory peptides. […]
(§3) The growth-responses of the cells were determined 2 days after the introduction of BNZ-γpeptide and the cytokine using the WST-1 assay. […]

[1] = tested on: pro-inflammatory cytokines IL-6, IFN-γ, TNF-α, and MCP-1; conditions: mouse, in vivo
IL-2 = assay: CTLL-2 proliferation assay (3H-thymidine), IL-2; type: cell-based; conditions: CTLL-2 cells, 50 pM IL-2, BNZ-γ 0.1, 1, 10 µM, 20 hours, 3H-thymidine (FIG. 3B)
Description: In a similar assay, the murine cell line CTTL2 was used. In this assay the cells were cultured with 0.5 nM of recombinant IL-2 in RPMI 10% fetal Calf Serum. To set up the proliferation assay, cells were washed from the cytokines 3 times. Cells were seeded at 1 × 10(5) cells per well of a 96-well plate with final concentration of 50 pM of IL-2 or IL-15. Various concentration of BNZ-γ peptide (0.1, 1, and 10 µM) was added to each well. Cells were cultured for 20 hours and in the last 4 hours, ^3H-thymidine was added to the plates. Cells were harvested and radioactivity measured to determine cell proliferation levels.
Inhibition of γc-cytokine-induced proliferation of an indicator cell population by antagonist custom derivative peptides is measured by the 3H-thymidine incorporation assay. Briefly, radiolabeled thymidine (1 microCi) is given to 20-50,000 cells undergoing proliferation in the presence of cytokines. The cell-incorporated radioactivity is measured by trapping cell-bound radioactivity to a glass-fiber filter using a conventional harvester machines (Example, Filtermate Universal Harvester from Perkin-Elmer), after which the radioactivity is measured using a b-counter (Example 1450, Trilux microplate scintillation counter).

[2] = tested on: NSG mice transplanted with huPBMCs and infected with LCMV; conditions: mouse, in vivo
IL-15 = assay: PT-18β proliferation assay (WST-1), IL-15; type: cell-based; conditions: PT-18β cells, 1 nM cytokine, BNZ-γ as 1:20 or 1:60 dilution of HEK293T supernatant, 2 days
Source text: as §1, §2, §3

IL-9 = assay: PT-18β proliferation assay (WST-1), IL-9; type: cell-based; conditions: PT-18β cells, 1 nM cytokine, BNZ-γ as 1:20 or 1:60 dilution of HEK293T supernatant, 2 days
Source text: as §1, §2, §3

STAT5 = assay: IL-15-mediated tyrosine phosphorylation of STAT5 in PT-18β cells (immunoblot); type: cell-based; conditions: PT-18β cells stimulated by IL-15, anti-phospho-STAT5 immunoblot
Source text: In addition to stimulating cellular proliferation, binding of the γc-cytokines to their receptors causes a diverse array of intracellular events. (Rochman et al., 2009, Nat Rev Immunol 9:480-90; Pesu et al., 2005, Immunol Rev 203:127-42). Immediately after the cytokine binds to its receptor, a tyrosine kinase called Jak3 (Janus-kinase 3) is recruited to the receptor at the plasma membrane. This kinase phosphorylates the tyrosine residues of multiple proteins including the γc-subunit, STAT5 (Signal Transducer and Activator of Transcription 5) and subunits of the PI3 (Phosphatidylinositol 3) kinase. Among these, the phosphorylation of STAT5 has been implicated in many studies as being linked to the proliferation of cells initiated by the γc-cytokine (Hennighausen and Robinson, 2008, Genes Dev 22:711-21). In accordance with these published data, whether or not the BNZ-γ peptide inhibits the tyrosine phosphorylation of STAT5 molecule in PT-18β cells stimulated by IL-15 was examined (results shown in FIG. 4).
PT-18β cells were stimulated by IL-15 in the presence or absence of BNZ-γ peptide. Cytoplasmic proteins were extracted from the cells according to a conventional method (Tagaya et al., 1996, EMBO J 15:4928-39). […]

IL-3 = assay: PT-18β proliferation assay (WST-1), IL-3 negative control; type: cell-based; conditions: PT-18β cells, 1 nM cytokine, BNZ-γ as 1:20 or 1:60 dilution of HEK293T supernatant, 2 days
Source text: as §1, §2, §3

IL-3, sequence (P01586 27-166): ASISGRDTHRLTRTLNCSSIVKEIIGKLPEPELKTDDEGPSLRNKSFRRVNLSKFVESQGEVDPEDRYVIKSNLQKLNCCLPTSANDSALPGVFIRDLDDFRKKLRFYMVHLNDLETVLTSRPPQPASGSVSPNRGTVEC

I-K-E-F-L-Q-R-F-I-H-I-V-Q-S-I-I-N-T-S (IKEFLQRFIHIVQSIINTS) [BNZ-γ]
cellular proliferation stimulated by IL-4 (IL-4): not affected
pro-inflammatory cytokine plasma levels [1]: drastically reduced
course of IL-6 plasma level over the measurement period ([1]; 2 mg/kg): clear incremental decreases
course of TNF-α plasma level over the measurement period ([1]; 2 mg/kg): clear incremental decreases
drop in IFN-γ plasma level versus PBS vehicle control ([1]; 2 mg/kg): 4.5 fold
drop in IL-6 plasma level versus PBS vehicle control ([1]; 2 mg/kg): 6 fold
drop in MCP-1 plasma level versus PBS vehicle control ([1]; 2 mg/kg): 7.5 fold
drop in TNF-α plasma level versus PBS vehicle control ([1]; 2 mg/kg): 7 fold
IL-2 induced cellular proliferation (IL-2): suppresses
protection from cytokine storm-induced mortality [2]: 100%
survival over the 5-week study period [2]: survived the 5-week study period
growth-promoting activity of IL-15 (IL-15): significantly (p<0.01 Student’s T test) reduced
growth-promoting activity of IL-9 (IL-9): significantly (p<0.01 Student’s T test) reduced
tyrosine phosphorylation of STAT5 induced by IL-15 (STAT5): markedly reduced
growth-promoting activity of IL-3 (a non γc-cytokine) (IL-3): not inhibited
